We go through three molecules from paper PMC11844072, “Novel 5,6-dichlorobenzimidazole derivatives as dual BRAFWT and BRAFV600E inhibitors: design, synthesis, anti-cancer activity and molecular dynamics simulations” (BMC Chemistry, 2025).

One series concerns HT29 cell line. The series is described as follows: Apoptosis assay (Annexin V-FITC/PI). In kind it is cell-based, human. The method, then: As stated in the Additional file A, the populations of apoptotic and necrotic cells of HT29 cell line were detected after treatment with 10h employing Annexin V-FITC apoptosis detection kit (For further details see Additional file A). […]
HT29: Colon Cancer was obtained from Nawah Scientific Inc., (Mokatam, Cairo, Egypt). […]
Apoptosis and necrosis cell populations are determined using Annexin V-FITC apoptosis detection kit (Abcam Inc., Cambridge Science Park, Cambridge, UK) coupled with 2 fluorescent channels flowcytometry. After treatment with test compounds for 48h, cells (10^5 cells) are collected by trypsinization and washed twice with ice-cold PBS (pH 7.4). Then, cells are incubated in dark with 0.5 ml of Annexin V-FITC/PI solution for 30 min in dark at room temperature according to manufacturer protocol. After staining, cells are injected via ACEA Novocyte™ flowcytometer (ACEA Biosciences Inc., San Diego, CA, USA) and analysed for FITC and PI fluorescent signals using FL1 and FL2 signal detector, respectively (λex/em 488/530 nm for FITC and λex/em 535/617 nm for PI). For each sample, 12,000 events are acquired and positive FITC and/or PI cells are quantified by quadrant analysis and calculated using ACEA NovoExpress™ software (ACEA Biosciences Inc., San Diego, CA,

In a further series the test system is 786-0. The experiment in a line: NCI 5-dose assay. Type of series: cell-based. The settings on record: Homo sapiens; 786-0, Renal cancer. In short, it runs like this:
(§1)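 Suspension cells such as leukaemia lines are fixed with 80% TCA added to settled cells, to 16% final, while other lines are fixed at 10% TCA. Both are then SRB-stained after 48 h of drug exposure at 37 °C.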

The next series relates to COLO 205. The series is described as follows: NCI 5-dose assay. Type of series: cell-based. As to conditions: Homo sapiens; COLO 205, Colon cancer. The gist of the method:
as §1

In the next series the test system is HT29. The series is described as follows: NCI 5-dose assay. In kind it is cell-based. As to conditions: Homo sapiens, HT-29; HT29, Colon cancer. In short, it runs like this: as §1
Another series relates to MCF7. The experiment in a line: NCI 5-dose assay. Type of series: cell-based. As to conditions: Homo sapiens; MCF7, Breast cancer. In short, it runs like this:
as §1

For a further series, the system named is MDA-MB-468. The series is described as follows: NCI 5-dose assay. As to conditions: Homo sapiens; MDA-MB-468, Breast cancer. In kind it is cell-based. In short, it runs like this:
as §1

For the next series, the system named is MOLT-4. The series is described as follows: NCI 5-dose assay. As to conditions: Homo sapiens; MOLT-4, Leukemia. In kind it is cell-based. In short, it runs like this: as §1
The test system of the next series is NCI/ADR-RES. The series is described as follows: NCI 5-dose assay. Type of series: cell-based. As to conditions: Homo sapiens, Ovarian cancer. In short, it runs like this:
as §1

Another series relates to SK-MEL-5. The experiment in a line: NCI 5-dose assay. In kind it is cell-based. The settings on record: Homo sapiens; SK-MEL-5, Melanoma. The gist of the method: as §1
The test system of another series is UO-31. The series is described as follows: NCI 5-dose assay. In kind it is cell-based. As to conditions: Homo sapiens; UO-31, Renal cancer. The gist of the method: as §1
The mark [1] stands for this setting: HT29, at its GI50 concentration, 48h.

In the case of `COC(=O)COc1ccc(C=NNC(=O)Cn2c(-c3ccc(OC)cc3)nc3cc(Cl)c(Cl)cc32)cc1` [Compound 10h, Methyl-2-(4-((2-(2-(5,6-dichloro-2-(4-methoxyphenyl)-1H-benzo[d]imidazol-1-yl)acetyl)hydrazono)methyl)phenoxy)acetate], the “% of cells in early apoptosis (Q2-4)” value in the series with HT29 cell line (setting [1]) stood at 2.29%. Moreover, the “% of cells in late apoptosis (Q2-2)” value with HT29 cell line (setting [1]) is recorded as 17.56%. In the series on HT29 cell line (setting [1]), the “% of necrotic cells (Q2-1)” value is 3.44%. Besides, the “% of viable cells (Q2-3)” value in the series on HT29 cell line (setting [1]) is 76.71%. In addition, the “total % of the cells in the apoptotic phases (Early and late)” value in the series on HT29 cell line (setting [1]) is listed as 19.85%. In addition, the apoptosis induction entry in the series with HT29 cell line (HT29 colon cancer cell line) is recorded as “induced apoptosis”. For the same molecule, the 50% growth inhibitory concentration (GI50) was found to be 3.01 µM in the series on 786-0; 16.5 µM in the series on COLO 205; 1.79 µM with HT29; 4.25 µM with MCF7; 1.68 µM in the series on MDA-MB-468; 5.36 µM with MOLT-4. In addition, the results for the GI50 in the series on NCI/ADR-RES, in the series on SK-MEL-5 and in the series with UO-31 were 5.22 µM, 80.9 µM and 9.74 µM, respectively.
In the case of `COC(=O)COc1cc(C=NNC(=O)Cn2c(-c3ccc(OC)cc3)nc3cc(Cl)c(Cl)cc32)ccc1OC` [Compound 10o, Methyl-2-(5-((2-(2-(5,6-dichloro-2-(4-methoxyphenyl)-1H-benzo[d]imidazol-1-yl)acetyl)hydrazono)methyl)-2-methoxyphenoxy)acetate], the GI50 in the series with 786-0 is 17.9 µM; in the series with COLO 205 it was greater than 100 µM; in the series on HT29, 12.9 µM; with MCF7, 100 µM; in the series on MDA-MB-468, 4.4 µM; with MOLT-4, 14.2 µM. For the same molecule, the 50% growth inhibitory concentration (GI50) was 81.2 µM in the series with NCI/ADR-RES, greater than 100 µM with SK-MEL-5 and 1.82 µM in the series with UO-31.
Take `COC(=O)COc1ccc(C=NNC(=O)Cn2c(-c3ccc(OC)cc3)nc3cc(Cl)c(Cl)cc32)cc1OC` [Compound 10p, Methyl-2-(4-((2-(2-(5,6-dichloro-2-(4-methoxyphenyl)-1H-benzo[d]imidazol-1-yl)acetyl)hydrazono)methyl)-2-methoxyphenoxy)acetate]: the 50% growth inhibitory concentration (GI50) was 2.21 µM in the series on 786-0; 18.2 µM in the series with COLO 205; 1.46 µM with HT29; greater than 72.5 µM with MCF7; 1.48 µM in the series on MDA-MB-468; greater than 72.5 µM with MOLT-4. Also, the concentration for 50% growth inhibition (GI50) was 3.05 µM in the series with NCI/ADR-RES, greater than 72.5 µM in the series on SK-MEL-5 and 8.11 µM in the series on UO-31.
